Measurements from patent publication EP0456257A1, “Silver halide color photographic material” (FUJI PHOTO FILM CO., LTD., priority 1990, dated 1991).

Assay: Spectral absorption of yellow-colored coupler in methanol
Type: physicochemical
Procedure: The melting point of the compound was 269 to 272" C (decomposition). The structure of the compound was confirmed by H-NMR spectrum, mass spectrum and elementary analysis.
75 ml of methyl cellosolve and 26 ml of water were added to 10.1 g of Compound b (prepared as in Synthesis Example 1) and 10.7 g of sodium acetate. The diazonium solution was then added to the system with stirring under cooling with ice. After the dropwise addition was completed, the system was further stirred for 1 hour under ice-cooling and then for 2 hours at room temperature. The resulting crystal was filtered off. The crystal was then dispersed in 200 ml of methanol. A solution of 2.2 g of sodium hydroxide in 10 ml of water was added dropwise to the dispersion. The material was stirred for 3 hours. The system was neutralized with concentrated hydrochloric acid. The resulting crystal was washed with water and then with methanol, and then dried. The resulting crude crystal was purified with heat methanol in the same manner as in Synthesis Example 1 to obtain 14.8 g of Exemplary Coupler (YC-3). The melting point of the compound was 246 to 251 ° C (decomposition). The structure of the compound was confirmed by 'H-NMR spectrum, mass spectrum and elementary analysis.
13.0 g of Compound g prepared by the synthesis method as described in U.S. Patent 4,138,258 was dissolved in 40 ml of N,N-dimethylformamide. […]

maximum absorption wavelength: 458.2 nm
molecular extinction coefficient: 42,800
SMILES: CCCCCCCCC(CCCCCC)COCCCNC(=O)c1cc(OCCOc2ccc(N=Nc3c(C)c(C#N)c(=O)n(-c4ccccc4C(=O)O)c3O)cc2)c2ccccc2c1O (centres unmarked) [YC-30]
